Reference: US8372420B2, “Compositions and methods for coating medical implants” (Angiotech International AG, priority 2002, dated 2013)

Assays:
Type in all cases: cell-based
[1] = tested on: P. aeruginosa PAE/K799 H187; assay: MIC determination by microtitre broth dilution; conditions: for Minimum Inhibitory Concentrations: P. aeruginosa PAE/K799 H187, wt, Gram−, Mueller Hinton broth, 37° C., 24 h
Procedure: (§1) A. MIC assay of various gram negative and positive bacteria MIC assays were conducted essentially as described by Amsterdam, D. 1996. Susceptibility testing of antimicrobials in liquid media, p. 52-111. In Loman, V., ed. Antibiotics in laboratory medicine, 4th ed. Williams and Wilkins, Baltimore, Md.

S. epidermidis C621 = assay: MIC determination by microtitre broth dilution; conditions: S. epidermidis C621, wt, Gram+; Mueller Hinton broth, 37° C., 24 h
Procedure: as §1

E. coli UB1005 C498 = assay: MIC determination by microtitre broth dilution; conditions: for Minimum Inhibitory Concentrations: E. coli UB1005 C498, wt, Gram−, Mueller Hinton broth, 37° C., 24 h
Procedure: as §1

S. aureus ATCC25923 C622 = assay: MIC determination by microtitre broth dilution; conditions: S. aureus ATCC25923 C622, wt, Gram+; Mueller Hinton broth, 37° C., 24 h
Procedure: as §1

S. pyogenes C721 = assay: MIC determination by microtitre broth dilution; conditions: S. pyogenes C721, wt, Gram+; Todd Hewitt broth, 37° C., 24 h
Procedure: as §1

[2] = tested on: K. pneumoniae ATCC13883 C238; assay: MIC determination by microtitre broth dilution; conditions: for Minimum Inhibitory Concentrations: K. pneumoniae ATCC13883 C238, wt, Gram−, Mueller Hinton broth, 37° C., 24 h
Procedure: as §1

[3] = tested on: organisms known to cause vascular access catheter-related infections; assay: Antibacterial activity of anticancer agents

`Sc1ncc2[nH]cnc2n1` [2-mercaptopurine] was tested, and the “Minimum Inhibitory Concentrations” value [1] was “N”, the “Minimum Inhibitory Concentrations” value (S. epidermidis C621) was “N” and the “Minimum Inhibitory Concentrations” value (E. coli UB1005 C498) was “N”. The “Minimum Inhibitory Concentrations” value (S. aureus ATCC25923 C622) was “N”, the “Minimum Inhibitory Concentrations” value (S. pyogenes C721) was “N” and the “Minimum Inhibitory Concentrations” value [2] was “N”. The “antibacterial activity against the organisms known to cause vascular access catheter-related infections” value (from here on “antibacterial activity”) [3] was “did not have antibacterial activity”.
`O=c1[nH]cc(F)c(=O)[nH]1` [5-fluorouracil, 5-Fluorouracil] was tested, and the “activity against Pseudomonas aeruginosa” value [1] was “have activity”, the “Minimum Inhibitory Concentrations” value [1] was 10^−5 Molar and the “Minimum Inhibitory Concentrations” value (S. epidermidis C621) was 10^−7 Molar. The “activity against Escheridia coli” value (E. coli UB1005 C498) was “have activity”, the “Minimum Inhibitory Concentrations” value (E. coli UB1005 C498) was 10^−6 Molar and the “Minimum Inhibitory Concentrations” value (S. aureus ATCC25923 C622) was 10^−7 Molar. For the same compound, the “Minimum Inhibitory Concentrations” value (S. pyogenes C721) was 10^−4 Molar and the “Minimum Inhibitory Concentrations” value [2] was 10^−6 Molar.
In the case of `Sc1ncnc2nc[nH]c12` [6-mercaptopurine], the “Minimum Inhibitory Concentrations” value [1] is reported as “N”, the “Minimum Inhibitory Concentrations” value (S. epidermidis C621) is reported as “N” and the “Minimum Inhibitory Concentrations” value (E. coli UB1005 C498) is reported as “N”. The “Minimum Inhibitory Concentrations” value (S. aureus ATCC25923 C622) was “N”, the “Minimum Inhibitory Concentrations” value (S. pyogenes C721) was “N” and the “Minimum Inhibitory Concentrations” value [2] was “N”. For the same compound, the “antibacterial activity” value [3] was “did not have antibacterial activity”.
With `Nc1ccn([C@@H]2O[C@H](CO)[C@@H](O)[C@@H]2O)c(=O)n1` [Cytarabine] the “Minimum Inhibitory Concentrations” value [1] was “N”, the “Minimum Inhibitory Concentrations” value (S. epidermidis C621) was “N” and the “Minimum Inhibitory Concentrations” value (E. coli UB1005 C498) was “N”. The “Minimum Inhibitory Concentrations” value (S. aureus ATCC25923 C622) was “N”, the “Minimum Inhibitory Concentrations” value (S. pyogenes C721) was “N” and the “Minimum Inhibitory Concentrations” value [2] was “N”. The “antibacterial activity” value [3] was “did not have antibacterial activity”.
`CC[C@@]1(O)C(=O)OCc2c1cc1n(c2=O)Cc2cc3ccccc3nc2-1` [camptothecin, Camptothecin] was tested, and the “Minimum Inhibitory Concentrations” value [1] was “N”, the “Minimum Inhibitory Concentrations” value (S. epidermidis C621) was 10^−4 Molar and the “Minimum Inhibitory Concentrations” value (E. coli UB1005 C498) was “N”. For the same compound, the “Minimum Inhibitory Concentrations” value (S. aureus ATCC25923 C622) was “N”, the “Minimum Inhibitory Concentrations” value (S. pyogenes C721) was “N” and the “Minimum Inhibitory Concentrations” value [2] was “N”. For the same compound, the “antibacterial activity” value [3] was “did not have antibacterial activity”.
`COc1cccc2c1C(=O)c1c(O)c3c(c(O)c1C2=O)C[C@@](O)(C(=O)CO)C[C@@H]3O[C@H]1C[C@H](N)[C@H](O)[C@H](C)O1` [doxorubicin, Doxorubicin] was tested, and the “activity against Pseudomonas aeruginosa” value [1] was “have activity”, the “Minimum Inhibitory Concentrations” value [1] was 10^−5 Molar and the “Minimum Inhibitory Concentrations” value (S. epidermidis C621) was 10^−6 Molar. For the same compound, the “activity against Escheridia coli” value (E. coli UB1005 C498) was “have activity”, the “Minimum Inhibitory Concentrations” value (E. coli UB1005 C498) was 10^−4 Molar and the “Minimum Inhibitory Concentrations” value (S. aureus ATCC25923 C622) was 10^−5 Molar. The “Minimum Inhibitory Concentrations” value (S. pyogenes C721) was 10^−7 Molar and the “Minimum Inhibitory Concentrations” value [2] was 10^−6 Molar.
For `COc1cc([C@@H]2c3cc4c(cc3[C@@H](O[C@@H]3O[C@@H]5CO[C@@H](C)O[C@H]5[C@H](O)[C@H]3O)[C@H]3COC(=O)[C@H]23)OCO4)cc(OC)c1O` [etoposide, Etoposide], the “Minimum Inhibitory Concentrations” value [1] was “N”, the “Minimum Inhibitory Concentrations” value (S. epidermidis C621) was 10^−6 Molar and the “Minimum Inhibitory Concentrations” value (E. coli UB1005 C498) was “N”. For the same compound, the “Minimum Inhibitory Concentrations” value (S. aureus ATCC25923 C622) was 10^−5 Molar, the “Minimum Inhibitory Concentrations” value (S. pyogenes C721) was 10^−5 Molar and the “Minimum Inhibitory Concentrations” value [2] was 10^−5 Molar.
With `NC(=O)NO` [hydroxyurea] the “activity against Pseudomonas aeruginosa” value [1] was “some activity”, the “Minimum Inhibitory Concentrations” value [1] was 10^−4 Molar and the “Minimum Inhibitory Concentrations” value (S. epidermidis C621) was “N”. The “Minimum Inhibitory Concentrations” value (E. coli UB1005 C498) was “N”, the “Minimum Inhibitory Concentrations” value (S. aureus ATCC25923 C622) was “N” and the “Minimum Inhibitory Concentrations” value (S. pyogenes C721) was 10^−4 Molar. The “Minimum Inhibitory Concentrations” value [2] was “N” and the “antibacterial activity” value [3] was “did not have antibacterial activity”.
`CN(Cc1cnc2nc(N)nc(N)c2n1)c1ccc(C(=O)N[C@@H](CCC(=O)O)C(=O)O)cc1` [methotrexate, Methotrexate] was tested, and the “Minimum Inhibitory Concentrations” value [1] was “N”, the “Minimum Inhibitory Concentrations” value (S. epidermidis C621) was “N” and the “Minimum Inhibitory Concentrations” value (E. coli UB1005 C498) was “N”. The “Minimum Inhibitory Concentrations” value (S. aureus ATCC25923 C622) was 10^−5 Molar, the “Minimum Inhibitory Concentrations” value (S. pyogenes C721) was 10^−6 Molar and the “activity against Klebsiella pneumoniae” value [2] was “activity”. For the same compound, the “Minimum Inhibitory Concentrations” value [2] was 10^−6 Molar.
In the case of `O=C1c2c(O)ccc(O)c2C(=O)c2c(NCCNCCO)ccc(NCCNCCO)c21` [mitoxantrone, Mitoxantrone], the “activity against Pseudomonas aeruginosa” value [1] is reported as “have activity”, the “Minimum Inhibitory Concentrations” value [1] is reported as 10^−5 Molar and the “Minimum Inhibitory Concentrations” value (S. epidermidis C621) is reported as 10^−5 Molar. For the same compound, the “activity against Escheridia coli” value (E. coli UB1005 C498) was “have activity”, the “Minimum Inhibitory Concentrations” value (E. coli UB1005 C498) was 10^−5 Molar and the “Minimum Inhibitory Concentrations” value (S. aureus ATCC25923 C622) was 10^−5 Molar. For the same compound, the “Minimum Inhibitory Concentrations” value (S. pyogenes C721) was 10^−6 Molar and the “Minimum Inhibitory Concentrations” value [2] was 10^−6 Molar.
In the case of `CC(=O)O[C@H]1C(=O)[C@@]2(C)[C@H]([C@H](OC(=O)c3ccccc3)[C@]3(O)C[C@H](OC(=O)[C@H](O)[C@@H](NC(=O)c4ccccc4)c4ccccc4)C(C)=C1C3(C)C)[C@]1(OC(C)=O)CO[C@@H]1C[C@@H]2O` [paclitaxel], the “antibacterial activity” value [3] is reported as “did not have antibacterial activity”.
In the case of `Nc1ncnc2c1ccn2[C@@H]1O[C@H](CO)[C@@H](O)[C@H]1O` [tubercidin], the “Minimum Inhibitory Concentrations” value [1] is reported as “N”, the “Minimum Inhibitory Concentrations” value (S. epidermidis C621) is reported as “N” and the “Minimum Inhibitory Concentrations” value (E. coli UB1005 C498) is reported as “N”. For the same compound, the “Minimum Inhibitory Concentrations” value (S. aureus ATCC25923 C622) was “N”, the “Minimum Inhibitory Concentrations” value (S. pyogenes C721) was “N” and the “Minimum Inhibitory Concentrations” value [2] was “N”. For the same compound, the “antibacterial activity” value [3] was “did not have antibacterial activity”.
With Cisplatin the “activity against Pseudomonas aeruginosa” value [1] was “some activity”, the “Minimum Inhibitory Concentrations” value [1] was 10^−4 Molar and the “Minimum Inhibitory Concentrations” value (S. epidermidis C621) was “N”. For the same compound, the “Minimum Inhibitory Concentrations” value (E. coli UB1005 C498) was “N”, the “Minimum Inhibitory Concentrations” value (S. aureus ATCC25923 C622) was “N” and the “Minimum Inhibitory Concentrations” value (S. pyogenes C721) was “N”. The “Minimum Inhibitory Concentrations” value [2] was “N” and the “antibacterial activity” value [3] was “did not have antibacterial activity”.
